# Assay: Equilibrium solubility in aqueous buffers
# Format: physicochemical
# Conditions: thermodynamic from solid, LC-MS/MS
# Experimental: The equilibrium solubility of crystalline compound (1) and crystalline compound (2) was measured in various aqueous buffers. The pH 4.0 and pH 5.0 buffers were prepared by combining 50 mL of 0.2 M potassium biphthalate with 150 mL of H2O, and then adjusting to pH 4.0 or pH 5.0 with 10 N HCl. The pH 6.0 buffer was prepared by combining 50 mL of 0.2 M KH2PO4 with 150 mL of H2O, and then adjusting to pH 6.0 with 10 N NaOH. The pH 7.4 buffer was prepared by combining 50 mL of 0.2 M KH2PO4 with 150 mL of H2O, and then adjusting to pH 7.4 with 10 N NaOH. At least 1 mg of powder for each compound was combined with 1 mL of each buffer to make a saturated mixture. The samples were shaken overnight on a Thermomixer® at room temperature. The samples were then passed through a […] PTFE syringe filter. The filtrate was sampled and diluted in duplicate as appropriate into a mixture of 1:1 buffer:acetonitrile (ACN) prior to analysis. All samples were assayed by LC-MS/MS using electrospray ionization against standards prepared in a mixture of 1:1 assay buffer:ACN. Standard concentrations ranged from 1.0 μM to 0.3 nM. The samples were analyzed by LCMS using a Waters Acuity® UPLC BEH Phenyl 30×2.1 mm, 1.7 μm liquid chromatography column and a PE Sciex® API 4000 mass spectrometer equipped with a Turbo Ionspray.
"solubility (aqueous potassium biphthalate buffer, aqueous buffer pH 4.0, shaken overnight at room temperature) [mM]","solubility (aqueous potassium biphthalate buffer, aqueous buffer pH 5.0, shaken overnight at room temperature) [mM]","solubility (aqueous potassium phosphate (KH2PO4) buffer, aqueous buffer pH 6.0, shaken overnight at room temperature) [mM]","solubility (aqueous potassium phosphate (KH2PO4) buffer, aqueous buffer pH 7.4, shaken overnight at room temperature) [mM]",Structure (SMILES)
12.5,10.2,8.17,–,"Cl.O=C(Nc1ccc(CN2CCOCC2)cc1)c1ccc(Cl)cc1 [Crystalline Compound (1), 4-chloro-N-(4-(morpholinomethyl)phenyl)benzamide hydrochloride]"
–,–,–,0.0125,"O=C(Nc1ccc(CN2CCOCC2)cc1)c1ccc(Cl)cc1 [Crystalline Compound (2), 4-chloro-N-(4-(morpholinomethyl)phenyl)benzamide]"

# Reference: patent US12116353B1, “Crystalline chloro-n-(4-(morpholinomethyl)phenyl)benzamide and crystalline hydrochloride salt” (GEN1E LIFESCIENCES INC., priority 2024, dated 2024)
